Results published in PMC5908134, “Saccharomyces cerevisiae as a platform for assessing sphingolipid lipid kinase inhibitors” (PLoS ONE, 2018).
“Also recorded” adds a separate entry of the source.

Key:
[1] = molecular target: T1, human SphK1 (Homo sapiens, UniProt Q9NYA1); assay: yeast growth rescue assay, strain CBY169 expressing human SphK1; format: cell-based; conditions: strain CBY169 expressing human SphK1
T1 construct: constructed by sub-cloning DNA encoding the indicated translational open reading frames into the pYES2-FLAG-URA expression vector; expressed in transfected cells; host or cells: Saccharomyces cerevisiae CBY169 or KYA1, plasmid pGAL-HsSPHK1
T1 sequence (Q9NYA1 whole entry): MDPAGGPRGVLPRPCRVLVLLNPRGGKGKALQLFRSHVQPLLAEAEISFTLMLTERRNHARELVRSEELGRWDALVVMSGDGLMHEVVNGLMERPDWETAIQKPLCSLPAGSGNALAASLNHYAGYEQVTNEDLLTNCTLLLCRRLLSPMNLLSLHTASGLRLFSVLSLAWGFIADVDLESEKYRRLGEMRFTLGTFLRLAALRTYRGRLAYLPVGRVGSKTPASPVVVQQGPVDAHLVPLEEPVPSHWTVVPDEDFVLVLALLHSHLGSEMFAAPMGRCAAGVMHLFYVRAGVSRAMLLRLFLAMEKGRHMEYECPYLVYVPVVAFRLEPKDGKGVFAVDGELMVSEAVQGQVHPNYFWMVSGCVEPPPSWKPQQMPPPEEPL
Text: (§1) The plasmids pGAL-HsSPHK1, pGAL-HsSPHK2, pGAL-MmSphk1, pGAL-MmSphk1L277M, pGAL-MmSphk2, pGAL-HsCERK and pGAL-SK2_MOD used in this study were constructed by sub-cloning DNA encoding the indicated translational open reading frames into the pYES2-FLAG-URA expression vector (provided by Dr. Cungui Mao). […] Excepting human and mouse SphK2, the DNA sequences are synthetic (from GeneWiz LLC (South Plainfield, NJ)) and were optimized for expression in S. cerevisiae.
(§2) Yeast harboring plasmids were selected and maintained on synthetic complete media lacking uracil (SC-URA) with 2% glucose as the fermentable carbon source. After overnight growth at 30°C in this media, the cultures were diluted 1:100 into SC-URA media supplemented with 2% galactose and various concentrations of test inhibitor. After a further 24–48 hours incubation at 30°C, the extent of growth was assessed by measuring absorbance at 600 nm. […] Tubes were incubated in a rotating drum while plates were agitated using a plate mixer. A600 for 96-well plate cultures was determined using a Molecular Devices SpectraMax M5 plate reader. Test compounds were dissolved in DMSO at 40–50 mM and diluted into water containing 0.1% fatty acid free bovine serum albumin. In all cases, the DMSO concentration in the assay was less than 2% (v/v).

[2] = molecular target: T2, human SphK2 (Homo sapiens, UniProt Q9NRA0); assay: yeast growth rescue assay, strain CBY169 expressing human SphK2; format: cell-based
T2 construct: full length (wild type hSK2); expressed in transfected cells; host or cells: Saccharomyces cerevisiae CBY169 or KYA1, plasmid pGAL-HsSPHK2
T2 sequence (Q9NRA0 1-618 isoform Q9NRA0-2): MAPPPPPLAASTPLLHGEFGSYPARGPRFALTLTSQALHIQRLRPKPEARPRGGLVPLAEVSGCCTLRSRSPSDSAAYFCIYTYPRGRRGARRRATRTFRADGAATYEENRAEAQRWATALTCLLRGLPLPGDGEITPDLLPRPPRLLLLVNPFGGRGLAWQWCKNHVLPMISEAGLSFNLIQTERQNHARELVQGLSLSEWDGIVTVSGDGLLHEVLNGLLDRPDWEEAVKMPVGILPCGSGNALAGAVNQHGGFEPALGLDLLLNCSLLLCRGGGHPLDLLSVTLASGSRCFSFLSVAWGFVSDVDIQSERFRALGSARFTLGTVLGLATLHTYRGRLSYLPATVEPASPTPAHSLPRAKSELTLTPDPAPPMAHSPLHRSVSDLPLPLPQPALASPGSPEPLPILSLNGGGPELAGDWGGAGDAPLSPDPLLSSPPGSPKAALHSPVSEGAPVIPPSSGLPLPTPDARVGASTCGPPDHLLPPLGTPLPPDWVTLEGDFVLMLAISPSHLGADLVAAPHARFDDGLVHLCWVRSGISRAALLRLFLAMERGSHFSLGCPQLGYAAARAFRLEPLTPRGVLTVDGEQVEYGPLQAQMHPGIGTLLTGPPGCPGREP
Text: as §1

[3] = molecular target: T1, human SphK1; assay: yeast growth rescue assay, strain KYA1 (PDR5 deleted) expressing human SphK1; format: cell-based
Text: as §1, §2

[4] = molecular target: T2, human SphK2; assay: yeast growth rescue assay, strain KYA1 (PDR5 deleted) expressing human SphK2; format: cell-based; conditions: for rescue of growth: strain KYA1 expressing human SphK2
Text: The yeast strains used in this study include JS1256 (MATa his3Δ1 leu2Δ0 met15Δ0 ura3Δ0) and CBY169 (MATα leu2-3,112 ura3-52 his4 trp1 rme1 dpl1Δ::TRP1 lcb3Δ::LEU2 lcb4Δ::kanMX lcb5Δ::kanMX) (the latter provided by Kyle Cunningham). The CBY169 strain was modified further by replacement of the PDR5 gene with a selectable marker (confers resistance to clonat) to generate strain KYA1 (MATα leu2-3,112 ura3-52 his4 trp1 rme1 dpl1Δ::TRP1 lcb3Δ::LEU2 lcb4Δ::kanMX lcb5Δ::kanMX pdr5Δ::natMX).
The plasmids pGAL-HsSPHK1, pGAL-HsSPHK2, pGAL-MmSphk1, pGAL-MmSphk1L277M, pGAL-MmSphk2, pGAL-HsCERK and pGAL-SK2_MOD used in this study were constructed by sub-cloning DNA encoding the indicated translational open reading frames into the pYES2-FLAG-URA expression vector (provided by Dr. Cungui Mao). The encoded proteins all have an amino terminal FLAG epitope tag ([…]) and their expression is under the control of the GAL1,10 promoter. Excepting human and mouse SphK2, the DNA sequences are synthetic (from GeneWiz LLC (South Plainfield, NJ)) and were optimized for expression in S. cerevisiae.

[5] = system: yeast strain CBY169; assay: toxicity for yeast (growth of strains without lipid kinase expression)
Method: as §2
The salient limitations of the yeast assay are those of any cell-based assay. Namely, the assay reports EC50 values rather than Km, Vmax or kcat values of inhibitors, test compounds must not be markedly cytotoxic at the concentrations tested and compounds must accumulate to some extent in the yeast. Cytotoxicity is readily discerned by testing compounds for an effect on growth of strains without lipid kinase expression.

[6] = molecular target: T3, mouse SphK2 (Mus musculus, UniProt Q9JIA7); assay: yeast growth rescue assay, mouse SphK2 (CBY169 and KYA1 strains); format: cell-based; conditions: both the CBY169 and KYA1 strains
T3 sequence (Q9JIA7 1-617): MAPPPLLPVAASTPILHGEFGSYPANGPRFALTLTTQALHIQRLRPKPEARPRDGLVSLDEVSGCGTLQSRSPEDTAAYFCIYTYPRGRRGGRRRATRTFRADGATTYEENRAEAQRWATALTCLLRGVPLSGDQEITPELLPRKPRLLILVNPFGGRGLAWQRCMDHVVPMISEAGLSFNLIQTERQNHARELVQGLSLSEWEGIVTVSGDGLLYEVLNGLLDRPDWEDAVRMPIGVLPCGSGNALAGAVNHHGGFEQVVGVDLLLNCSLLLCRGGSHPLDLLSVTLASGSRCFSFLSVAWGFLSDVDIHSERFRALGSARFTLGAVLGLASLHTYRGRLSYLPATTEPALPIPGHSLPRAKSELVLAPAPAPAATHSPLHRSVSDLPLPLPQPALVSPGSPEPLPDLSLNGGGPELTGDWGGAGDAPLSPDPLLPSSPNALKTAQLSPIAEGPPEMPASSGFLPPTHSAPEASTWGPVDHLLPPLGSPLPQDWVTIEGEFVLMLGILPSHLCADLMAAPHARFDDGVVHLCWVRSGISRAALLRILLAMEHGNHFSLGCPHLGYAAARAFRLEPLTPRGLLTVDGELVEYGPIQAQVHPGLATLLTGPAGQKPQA
Text: as §1, §2

[7] = molecular target: T2, human SphK2; assay: LCMS of phospho-LCBs in yeast expressing human SphK2; format: cell-based; conditions: yeast with pGAL-HsSPHK2, galactose media, 6 hours, inhibitor 300 nM
Method: Cell pellets (approximately 5 million cells) were mixed with 2 mL of a 3:1 methanol/chloroform mixture and transferred to a capped glass vial. To this suspension was added 10 μL of internal standard solution containing 1 μM d7S1P (deuterated sphingosine 1-phosphate) (Avanti Polar Lipids). The mixture was homogenized in a bath sonicator for 10 min and incubated at 48°C for 16 h. The mixture was then cooled to room temperature and mixed with 200 μL of 1 M KOH in methanol. The samples were again sonicated and incubated at 37°C for 2 h. After this time, the samples were neutralized through the addition of 20 μL of glacial acetic acid and transferred to 2 mL microcentrifuge tubes. […] Immediately before LCMS analysis, the material was dissolved in 300 μL of methanol, clarified by centrifuged at 12,000 x g for 12 min at 4°C, and analyzed by LCMS.
Analyses were performed using a triple quadrupole mass spectrometer (Sciex 4000 Q-Trap) coupled to a Shimadzu LC-20AD liquid chromatography system. […] Sphingolipids were detected using MRM (multiple reaction monitoring) methods as follows: d7S1P (387.4→271.3); dhS1P (382.4→266.4); dhSph (dihydroSphingosine) (302.5→60.0); phytoS1P (398.3→300.4) and phytosSph (318.4→282.3).
Yeast were cultured for 6 hours in the indicated media; inhibitors were present at 300 nM. Sphingolipids in cell pellets were analyzed by LCMS (see Methods for details).

[8] = molecular target: T4, human SphK2 deletion mutant 11–1 (12–137 & 371–436 deleted) (Homo sapiens, UniProt Q9NRA0, D462G/DEL396-461/E171D/G163S/G648A); assay: yeast growth rescue, CBY169, human SphK2 deletion mutant 11–1; format: cell-based; conditions: mutant 11–1 (191 aa deleted)
T4 construct: a set of mutants lacking portions of the non-SphK1 overlapping amino acids of human SphK2; expressed in transfected cells; host or cells: Saccharomyces cerevisiae CBY169
T4 sequence (Q9NRA0 with tags, fused parts or gaps isoform Q9NRA0-2 G127S/E135D/DEL360-425/D426G/G612A): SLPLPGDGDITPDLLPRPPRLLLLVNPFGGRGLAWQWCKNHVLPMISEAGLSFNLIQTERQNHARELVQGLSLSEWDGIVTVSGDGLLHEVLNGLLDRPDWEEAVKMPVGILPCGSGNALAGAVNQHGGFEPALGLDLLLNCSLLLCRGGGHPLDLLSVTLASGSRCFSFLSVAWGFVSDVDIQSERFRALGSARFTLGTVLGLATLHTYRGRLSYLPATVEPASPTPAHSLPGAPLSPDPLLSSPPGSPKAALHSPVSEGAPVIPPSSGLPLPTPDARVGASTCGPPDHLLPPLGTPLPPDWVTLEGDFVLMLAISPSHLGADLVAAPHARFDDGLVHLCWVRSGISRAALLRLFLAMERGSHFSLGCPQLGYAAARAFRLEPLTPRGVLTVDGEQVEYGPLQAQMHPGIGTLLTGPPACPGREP
Text: While some of the nucleotide changes were translationally silent, the altered human SphK2 (termed ‘SK2_MOD’) DNA encoded five amino acid changes (Glu71Asp, Gly138Ser, Glu146Asp, Glu437Gly, Gly623Ala).

Row | SMILES | rescue of growth in galactose media [1] | rescue of growth [2] | rescue of growth [3] | rescue of growth [4] | rescue of growth ([4]; concentrations up to 100 μM) | cytotoxicity for yeast [5] | activity (rescue of growth) [6] | potency in CBY169 vs. KYA1 strains (PDR5p status) ([4]; presence (CBY169) or absence (KYA1) of PDR5) | concentrations at which toxic for yeast ([5]; yeast strain CBY169) | phospho-LCB levels [7] | loss of potency [8]
1 | O=C(NCc1ccncc1)C12CC3CC(C1)CC(c1ccc(Cl)cc1)(C3)C2 [ABC294640] | failed to rescue growth | failed to rescue growth; also recorded: failure to detect activity | failed to rescue growth | failed to rescue growth; also recorded: failure to detect activity | failed to rescue growth | not cytotoxic | failure to detect activity | – | – | – | –
2 | CCCCCCCCOc1ccc(-c2noc([C@@H]3CCCN3C(=N)N)n2)cc1C(F)(F)F [SLM6031434] | – | rescued growth | – | – | – | – | – | the same; also recorded: not different | 2000 to 3000 nM | decreased | ~3 fold
